One may read the IC50 as the midpoint of a concentration-inhibition curve.

Molecules are shown by their SMILES. Where only a bound is given, the exact number is not on record here.

One test relates to HEK293 cells. Kind of test: HEK293 VLCFA-LPC IC50 determination (13C-labeled C26:0 LPC by UHPLC/MS). The test is classed as cell-based, human. Conditions: Homo sapiens, HEK293, 48 h, average of one or more replicates; 13C-labeled C26:0 LPC, 48 hours; read-out: Average HEK293 IC50. Here is the method:
HEK293 cells were treated with compounds, such as those listed in Tables A-E of Example 1, using the representative manual protocols described below. The protocols below were also adapted to a semi-automated protocol using standard methods in the art.
Cell Culture Growth Conditions:
HEK293 cells were maintained in FreeStyle F17 media (Gibco # A13835) supplemented with PenStrep (1%, Gibco #15070-063), Glutamax (2%, Gibco #35050-061), and Pluronic (0.1%, Gibco #24040-032) (“supplemented media”). Suspension cultures were grown in disposable Erlenmeyer flasks at about 120 rpm, 37° C., 5% CO2, and 80% humidity. Cell densities were kept between about 0.5 and 3 million cells per mL, in about 50-200 mL per flask.
Treatment of Cells with Compounds Provided Herein:
The cells were treated with compounds using either a total of 900 uL cell media volume (high-volume assay) or a total of 200 uL cell media volume (low-volume assay). In the high volume assay, 450 μL of supplemented media plus 13C-acetate (1.0 mg/mL, Sigma Aldrich #282014) were added to 0.5 μL of a compound (such as those in Tables A-E) in DMSO in a polypropylene v-bottom plate (Costar #3363) in 1 of 3 dilution schemes. The contents of each well were mixed and transferred to a sterile polypropylene deep-well v-bottom plate (Costar #3960). 450 μL of cultured HEK293 cells in supplemented media at a density of 1.0 million cells/mL was added to each well. In the low volume assay, 100 μL of supplemented media plus 13C-acetate (1.0 mg/mL, Sigma Aldrich #282014) were added to either 0.1 μL or 1.0 uL of a compound (such as those in Tables A-E) in DMSO in a polypropylene v-bottom plate (Costar #3363) in 1 of 3 dilution schemes. 100 μL of cultured HEK293 cells in supplemented media at a density of 1.0 million cells/mL was added to each well. The high volume and low volume plates were sealed with either AirPore Tape Sheets (Qiagen #19571) or Duetz plate covers to control evaporation and placed into a shaking incubator at 225 rpm, 37° C., 5% CO2, and 80% humidity for 48 hours. For both the high and low volume assays the 3 dilution schemes used were as follows:
Following incubation, treated cells were harvested by centrifugation at 1690×g for 10 minutes. In the high volume assay 200 uL treated cells were transferred to a polypropylene v-bottom plate (Costar #3363) prior to centrifugation. In the low volume assay the incubation plate was centrifuged directly, without a transfer step. The supernatant was then discarded and the analytes were extracted using 1 of 2 different extraction schemes. In the first scheme, the cell pellet was visibly broken up by mixing the cell pellet up and down in 100 μL of hexane/isopropanol (60:40) 20 times. The resulting mixture was transferred to a 0.45 μm Durapore membrane (Millipore #MSH VN4510) atop a polypropylene v-bottom plate (Costar #3363) and filtered by centrifugation at 1690×g for 5 minutes. 120 μL of n-butanol containing 10 nM C13:0 lysophosphatidylcholine was added to the filtrate as an injection control standard, then the entire volume was transferred to a new Durapore membrane/v-bottom plate. In the second scheme, the cell pellet was visibly broken up by mixing the cell pellet up and down in 180 μL of methanol containing 10 nM C13:0 lysophosphatidylcholine 20 times. The resulting mixture was transferred to a 0.45 μm Durapore membrane (Millipore #MSH VN4510) atop a polypropylene v-bottom plate and filtered by centrifugation at 1690×g for 5 minutes. In both schemes, the plates were then sealed with pierceable capmats (Micronic MP53017) and stored at −20 OC until analyzed.
UHPLC/Mass Spectrometry Readout:
The filtered organic extraction was analyzed with a 1290 Agilent Infinity Series UHPLC coupled to an ABI Sciex QTrap 6500 mass spectrometer. […]
Take `O=C(Nc1ccn(-c2ccccc2)n1)C1(c2ccccc2)CC1(F)F` (single isomer, unassigned) [Compound 366]: the concentration for half-maximal inhibition (IC50) came out at 0.21 µM. Still for that read-out and setting: as for `O=C(Nc1ccn(-c2ccnc(F)c2)n1)C1(c2ccccc2)CC1(F)F` (single isomer, unassigned) [Compound 368], the figure is 0.032 µM. On the same count and under the same terms, then `O=C(Nc1ccn(-c2ccnc(F)c2)n1)C1(c2ccccc2)CC1(Cl)Cl` (single isomer, unassigned) [Compound 370], with 0.17 µM; and `O=C(Nc1ccn(-c2ccnc(F)c2)n1)C1(c2ccccc2)CC1(Cl)Cl` (single isomer, unassigned) [Compound 371], with 0.72 µM; and `O=C(Nc1ccn(-c2ccncc2)n1)C1(c2ccccc2)CC1(F)F` (single isomer, unassigned) [Compound 433], with 0.32 µM. Consider `O=C(Nc1ccn(-c2cncc(F)c2)n1)[C@]1(c2ncccc2F)CC12CC2` (single isomer, unassigned) [Compound 499], for which the IC50 was found to be 0.74 µM. `O=C(Nc1ccn(-c2cncc(F)c2)n1)[C@@]1(c2ncccc2F)CC12CC2` (single isomer, unassigned) [Compound 500]: the IC50 was found to be 0.43 µM.

Staying with this test, now noted: Homo sapiens, HEK293, HEK293 cells; average of one or more replicates; read-out: Average HEK293 IC50.
Regarding `O=C(Nc1ccn(-c2ccccc2)n1)C1(c2ccccc2)CC1(F)F` (racemic) [Compound 143, 2,2-difluoro-1-phenyl-N-(1-phenyl-1H-pyrazol-3-yl)cyclopropane-1-carboxamide], the concentration for half-maximal inhibition (IC50) stood at 0.14 µM. For the compound `O=C(Nc1ccn(-c2ccncc2)n1)C1(c2ccccc2)CC1(F)F` (racemic) [Compound 419, 2,2-difluoro-1-phenyl-N-(1-(pyridin-4-yl)-1H-pyrazol-3-yl)cyclopropane-1-carboxamide], the half-maximal inhibitory concentration (IC50) was 0.24 µM. As to `O=C(Nc1ccn(-c2cncc(F)c2)n1)C1(c2ccccc2)CC1(F)F` (racemic) [Compound 420, 2,2-difluoro-N-(1-(5-fluoropyridin-3-yl)-1H-pyrazol-3-yl)-1-phenylcyclopropane-1-carboxamide], the IC50 amounted to 0.1 µM. Same read-out and setting: as for `O=C(Nc1ccn(-c2cccc(Cl)c2)n1)C1(c2ccccc2)CC1(F)F` (racemic) [Compound 421, N-(1-(3-chlorophenyl)-1H-pyrazol-3-yl)-2,2-difluoro-1-phenylcyclopropane-1-carboxamide], the figure is 0.47 µM. For `O=C(Nc1ccn(-c2cncc(F)c2)n1)C1(c2ncccc2F)CC12CC2` (racemic) [Compound 473, 1-(3-fluoropyridin-2-yl)-N-(1-(5-fluoropyridin-3-yl)-1H-pyrazol-3-yl)spiro[2.2]pentane-1-carboxamide], the IC50 came to 0.43 µM. The same measure, in the same setting: as for `O=C(Cc1ccccc1F)Nc1ccn(-c2ccccc2)n1` [Compound 1, 2-(2-fluorophenyl)-N-(1-phenylpyrazol-3-yl)acetamide], the figure is 0.068 µM; as for `O=C(Nc1ccn(-c2ccccc2)n1)C1(c2ccccc2)CC1` [Compound 2, 1-phenyl-N-(1-phenyl-1H-pyrazol-3-yl)cyclopropane-1-carboxamide], 0.02 µM; as for `O=C(Cc1ccccc1F)Nc1ccn(-c2ccnc(Cl)c2)n1` [Compound 4, N-[1-(2-chloro-4-pyridyl)pyrazol-3-yl]-2-(2-fluorophenyl)acetamide], 0.65 µM. For `O=C(Cc1ccsc1)Nc1ccn(-c2ccccc2)n1` [Compound 5, N-(1-phenylpyrazol-3-yl)-2-(3-thienyl)acetamide], the 50% inhibitory concentration (IC50) was 0.41 µM. Turning to `O=C(Cc1ccc(Cl)cc1)Nc1ccn(-c2ccccc2)n1` [Compound 6, 2-(4-chlorophenyl)-N-(1-phenylpyrazol-3-yl)acetamide], the half-inhibitory concentration (IC50) was more than 5 µM. As for `COc1cccc(CC(=O)Nc2ccn(-c3ccccc3)n2)c1OC` [Compound 7, 2-(2,3-dimethoxyphenyl)-N-(1-phenylpyrazol-3-yl)acetamide], the IC50 was more than 5 µM. Consider `COc1cc(CC(=O)Nc2ccn(-c3ccccc3)n2)ccc1O` [Compound 9, 2-(4-hydroxy-3-methoxy-phenyl)-N-(1-phenylpyrazol-3-yl)acetamide], for which the IC50 is more than 5 µM.

Regarding `CC(C)c1ccc(CC(=O)Nc2ccn(-c3ccccc3)n2)cc1` [Compound 10, 2-(4-isopropylphenyl)-N-(1-phenylpyrazol-3-yl)acetamide], the half-maximal inhibitory concentration (IC50) was determined as 4.4 µM.

For `Cc1ccccc1C1(C(=O)Nc2ccn(-c3ccccc3)n2)CC1` [Compound 12, 1-(o-tolyl)-N-(1-phenylpyrazol-3-yl)cyclopropanecarboxamide], the IC50 is 0.13 µM.

With `O=C(Nc1ccn(-c2ccccc2)n1)C1(c2ccc(F)cc2)CC1` [Compound 13, 1-(4-fluorophenyl)-N-(1-phenylpyrazol-3-yl)cyclopropanecarboxamide], the IC50 was 0.082 µM.

`O=C(Cc1ccccc1F)Nc1ccn(-c2ccncc2)n1` [Compound 14, 2-(2-fluorophenyl)-N-[1-(4-pyridyl)pyrazol-3-yl]acetamide]: the half-maximal inhibitory concentration (IC50) was found to be 0.58 µM. The same measure, in the same setting: as for `O=C(Cc1ccccc1F)Nc1ccn(-c2cncnc2)n1` [Compound 15, 2-(2-fluorophenyl)-N-(1-pyrimidin-5-ylpyrazol-3-yl)acetamide], the figure is 1 µM. For `O=C(Cc1ccc(F)cc1)Nc1ccn(-c2ccccc2)n1` [Compound 16, 2-(4-fluorophenyl)-N-(1-phenylpyrazol-3-yl)acetamide], the IC50 stood at 0.33 µM. Same read-out and setting: as for `O=C(Cc1cc(F)c(F)c(F)c1)Nc1ccn(-c2ccccc2)n1` [Compound 17, N-(1-phenylpyrazol-3-yl)-2-(3,4,5-trifluorophenyl)acetamide], the figure is more than 5 µM; as for `O=C(Cc1ccc(F)cc1F)Nc1ccn(-c2ccccc2)n1` [Compound 18, 2-(2,4-difluorophenyl)-N-(1-phenylpyrazol-3-yl)acetamide], 0.26 µM. As to `O=C(Nc1ccn(-c2ccccc2)n1)C1(c2cccc(Cl)c2)CC1` [Compound 19, 1-(3-chlorophenyl)-N-(1-phenylpyrazol-3-yl)cyclopropanecarboxamide], the IC50 worked out at 0.25 µM.

The same test, now with this note: Homo sapiens, HEK293, read-out: Average HEK293 IC50.
In the case of `O=C(Nc1ccn(-c2ccnc(F)c2)n1)C1(c2ccccc2)CC1(F)F` (racemic) [Compound 169, 2,2-difluoro-N-(1-(2-fluoropyridin-4-yl)-1H-pyrazol-3-yl)-1-phenylcyclopropane-1-carboxamide], the IC50 was 0.052 µM.

The same test, now with this note: average of one or more replicates; 13C-labeled C26:0 LPC, 48 hours; read-out: Average HEK293 IC50.
Regarding `O=C(Nc1ccn(-c2ccccc2)n1)C1(c2ccccc2)CC1(F)F` (single isomer, unassigned) [Compound 367], the IC50 came to 0.11 µM. Same read-out and setting: as for `O=C(Nc1ccn(-c2ccnc(F)c2)n1)C1(c2ccccc2)CC1(F)F` (single isomer, unassigned) [Compound 369], the figure is 0.036 µM. On the same count and under the same terms, then `O=C(Nc1ccn(-c2ccncc2)n1)C1(c2ccccc2)CC1(F)F` (single isomer, unassigned) [Compound 434], with 0.34 µM; and `O=C(Nc1ccn(-c2cncc(F)c2)n1)C1(c2ccccc2)CC1(F)F` (single isomer, unassigned) [Compound 435], with 0.06 µM; and `O=C(Nc1ccn(-c2cncc(F)c2)n1)C1(c2ccccc2)CC1(F)F` (single isomer, unassigned) [Compound 436], with 0.18 µM.

Regarding `O=C(Nc1ccn(-c2cccc(Cl)c2)n1)C1(c2ccccc2)CC1(F)F` (single isomer, unassigned) [Compound 437], the concentration for half-maximal inhibition (IC50) was 2.4 µM. The same measure, in the same setting: then `O=C(Nc1ccn(-c2cccc(Cl)c2)n1)C1(c2ccccc2)CC1(F)F` (single isomer, unassigned) [Compound 438], with 0.54 µM.

For the origin of these results see patent US20180251431A1 (VERTEX PHARMACEUTICALS INCORPORATED, priority 2016, published 2018).
